Read-outs that look alike come from different tables or passages of the source.
Legend:
[1] = tested on: HCoV 229E; assay: Cytopathic effect reduction, HCoV 229E; type: cell-based, Human coronavirus 229E; conditions: reduction of virus-induced cytopathic effect by 50%, virus input 100 TCID50, read-out: Antiviral Activity (EC50) HCoV 229E
[2] = tested on: HCoV OC43; assay: Cytopathic effect reduction, HCoV OC43; type: cell-based, Human coronavirus OC43; conditions: reduction of virus-induced cytopathic effect by 50%, virus input 100 TCID50, read-out: Antiviral Activity (EC50) HCoV OC43
[3] = tested on: HCoV NL63; assay: Cytopathic effect reduction, HCoV NL63; type: cell-based, Human coronavirus NL63; conditions: reduction of virus-induced cytopathic effect by 50%, virus input 100 TCID50, read-out: Antiviral Activity (EC50) HCoV NL63
[4] = tested on: RSV (Long); assay: Cytopathic effect reduction, RSV (Long); type: cell-based, Respiratory syncytial virus; conditions: reduction of virus-induced cytopathic effect by 50%, virus input 100 TCID50, read-out: Antiviral Activity (EC50) RSV Long
[5] = Cytotoxicity in HEL299 cells, MTS assay; type: cell-based, Human; conditions: human, HEL299 cells, cell growth reduced by 50%
Method: (§1) Cells were seeded at a rate of 5 × 10^3 cells/well into 96-well plates and allowed to proliferate for 24 h. Then, a medium containing different concentrations of the test compounds, starting at 100 mM, was added. After 3 days of incubation at 37 °C, the cell count was determined with a Beckman Coulter counter or, alternatively, cell viability was determined with the colorimetric formazan-based MTS assay. […] The cytotoxic effects of the compounds were also assessed by evaluating the MCC (minimum cytotoxic concentration that causes a microscopically detectable alteration of cell morphology).

[6] = Cytotoxicity in Huh7 cells, MTS assay; type: cell-based, Human; conditions: human, Huh7 cells, cell growth reduced by 50%
Method: as §1

[7] = tested on: HEL299 cells; assay: Cytotoxicity in HEL299 cells, MTS assay; type: cell-based, Human; conditions: cell growth reduced by 50%
Method: as §1

[8] = tested on: Huh7 cells; assay: Cytotoxicity in Huh7 cells, MTS assay; type: cell-based, Human; conditions: cell growth reduced by 50%
Method: as §1

[9] = human respiratory syncytial virus

SMILES | EC50 ([1]; Human coronavirus 229E) | EC50 ([2]; Betacoronavirus 1, OC43) | EC50 ([3]; Human coronavirus NL63) | EC50 [4, 9] | CC50 at 3 days [5] | CC50 at 3 days [6] | EC50 [1] | EC50 [2] | EC50 [3] | EC50 [4] | CC50 [7] | CC50 [8]
O=c1n([C@H]2C[C@H](O)[C@@H](CO)O2)ccc2nc3cc(O)ccc3n12 [Compound 2a, 7-hydroxy-2-((2R,4S,5R)-4-hydroxy-5-(hydroxymethyl)tetrahydrofuran-2-yl)benzo[4,5]imidazo[1,2-c]pyrimidin-1(2H)-one] | > 100 µM | > 100 µM | > 100 µM | > 100 µM | > 100 µM | > 100 µM |  |  |  |  |  | 
O=c1n([C@@H]2O[C@H](CO)[C@@H](O)[C@H]2O)ccc2nc3cc(O)ccc3n12 [Compound 2b, 2-((2R,3R,4S,5R)-3,4-dihydroxy-5-(hydroxymethyl)tetrahydrofuran-2-yl)-7-hydroxybenzo[4,5]imidazo[1,2-c]pyrimidin-1(2H)-one] | > 100 µM | > 100 µM | > 100 µM | > 100 µM | > 100 µM | > 100 µM |  |  |  |  |  | 
CCCCOc1ccc2c(c1)nc1ccn([C@H]3C[C@H](O)[C@@H](COC(c4ccccc4)(c4ccc(OC)cc4)c4ccc(OC)cc4)O3)c(=O)n12 [Compound 4a, 2-((2R,4S,5R)-5-((bis(4-methoxyphenyl)(phenyl)methoxy)methyl)-4-hydroxytetrahydrofuran-2-yl)-7-butoxybenzo[4,5]imidazo[1,2-c]pyrimidin-1(2H)-one] |  |  |  |  |  |  | > 100 µM | > 100 µM | > 100 µM | > 100 µM | > 40 µM | > 40 µM
CCCCCCOc1ccc2c(c1)nc1ccn([C@H]3C[C@H](O)[C@@H](COC(c4ccccc4)(c4ccc(OC)cc4)c4ccc(OC)cc4)O3)c(=O)n12 [Compound 4b, 2-((2R,4S,5R)-5-((bis(4-methoxyphenyl)(phenyl)methoxy)methyl)-4-hydroxytetrahydrofuran-2-yl)-7-(hexyloxy)benzo[4,5]imidazo[1,2-c]pyrimidin-1(2H)-one] |  |  |  |  |  |  | > 100 µM | > 100 µM | > 100 µM | > 100 µM | > 100 µM | > 100 µM
CCCCCCCCOc1ccc2c(c1)nc1ccn([C@H]3C[C@H](O)[C@@H](COC(c4ccccc4)(c4ccc(OC)cc4)c4ccc(OC)cc4)O3)c(=O)n12 [Compound 4c, 2-((2R,4S,5R)-5-((bis(4-methoxyphenyl)(phenyl)methoxy)methyl)-4-hydroxytetrahydrofuran-2-yl)-7-(octyloxy)benzo[4,5]imidazo[1,2-c]pyrimidin-1(2H)-one] |  |  |  |  |  |  | > 100 µM | > 100 µM | > 100 µM | > 100 µM | > 40 µM | > 100 µM
CCCCCCCCCCOc1ccc2c(c1)nc1ccn([C@H]3C[C@H](O)[C@@H](COC(c4ccccc4)(c4ccc(OC)cc4)c4ccc(OC)cc4)O3)c(=O)n12 [Compound 4d, 2-((2R,4S,5R)-5-((bis(4-methoxyphenyl)(phenyl)methoxy)methyl)-4-hydroxytetrahydrofuran-2-yl)-7-(decyloxy)benzo[4,5]imidazo[1,2-c]pyrimidin-1(2H)-one] |  |  |  |  |  |  | > 100 µM | > 100 µM | > 100 µM | > 100 µM | > 40 µM | > 40 µM
CCCCCCCCCCCCOc1ccc2c(c1)nc1ccn([C@H]3C[C@H](O)[C@@H](COC(c4ccccc4)(c4ccc(OC)cc4)c4ccc(OC)cc4)O3)c(=O)n12 [Compound 4e, 2-((2R,4S,5R)-5-((bis(4-methoxyphenyl)(phenyl)methoxy)methyl)-4-hydroxytetrahydrofuran-2-yl)-7-(dodecyloxy)benzo[4,5]imidazo[1,2-c]pyrimidin-1(2H)-one] |  |  |  |  |  |  | > 100 µM | > 100 µM | > 100 µM | > 100 µM | > 100 µM | > 100 µM
CCCCOc1ccc2c(c1)nc1ccn([C@@H]3O[C@H](COC(c4ccccc4)(c4ccc(OC)cc4)c4ccc(OC)cc4)[C@@H](O)[C@H]3O)c(=O)n12 [Compound 5a, 2-((2R,3R,4S,5R)-5-((bis(4-methoxyphenyl)(phenyl)methoxy)methyl)-3,4-dihydroxytetrahydrofuran-2-yl)-7-butoxybenzo[4,5]imidazo[1,2-c]pyrimidin-1(2H)-one] |  |  |  |  |  |  | > 100 µM | > 100 µM | > 100 µM | > 100 µM | > 100 µM | > 100 µM
CCCCCCOc1ccc2c(c1)nc1ccn([C@@H]3O[C@H](COC(c4ccccc4)(c4ccc(OC)cc4)c4ccc(OC)cc4)[C@@H](O)[C@H]3O)c(=O)n12 [Compound 5b, 2-((2R,3R,4S,5R)-5-((bis(4-methoxyphenyl)(phenyl)methoxy)methyl)-3,4-dihydroxytetrahydrofuran-2-yl)-7-(hexyloxy)benzo[4,5]imidazo[1,2-c]pyrimidin-1(2H)-one] |  |  |  |  |  |  | > 100 µM | > 50 µM | > 100 µM | > 100 µM | > 100 µM | > 10 µM
CCCCCCCCOc1ccc2c(c1)nc1ccn([C@@H]3O[C@H](COC(c4ccccc4)(c4ccc(OC)cc4)c4ccc(OC)cc4)[C@@H](O)[C@H]3O)c(=O)n12 [Compound 5c, 2-((2R,3R,4S,5R)-5-((bis(4-methoxyphenyl)(phenyl)methoxy)methyl)-3,4-dihydroxytetrahydrofuran-2-yl)-7-(octyloxy)benzo[4,5]imidazo[1,2-c]pyrimidin-1(2H)-one] |  |  |  |  |  |  | > 100 µM | > 100 µM | > 100 µM | > 100 µM | > 100 µM | > 10 µM
CCCCCCCCCCOc1ccc2c(c1)nc1ccn([C@@H]3O[C@H](COC(c4ccccc4)(c4ccc(OC)cc4)c4ccc(OC)cc4)[C@@H](O)[C@H]3O)c(=O)n12 [Compound 5d, 2-((2R,3R,4S,5R)-5-((bis(4-methoxyphenyl)(phenyl)methoxy)methyl)-3,4-dihydroxytetrahydrofuran-2-yl)-7-(decyloxy)benzo[4,5]imidazo[1,2-c]pyrimidin-1(2H)-one] |  |  |  |  |  |  | > 100 µM | > 100 µM | > 100 µM | > 100 µM | > 100 µM | > 100 µM
CCCCCCCCCCCCOc1ccc2c(c1)nc1ccn([C@@H]3O[C@H](COC(c4ccccc4)(c4ccc(OC)cc4)c4ccc(OC)cc4)[C@@H](O)[C@H]3O)c(=O)n12 [Compound 5e, 2-((2R,3R,4S,5R)-5-((bis(4-methoxyphenyl)(phenyl)methoxy)methyl)-3,4-dihydroxytetrahydrofuran-2-yl)-7-(dodecyloxy)benzo[4,5]imidazo[1,2-c]pyrimidin-1(2H)-one] |  |  |  |  |  |  | > 100 µM | > 100 µM | > 100 µM | > 100 µM | > 100 µM | > 40 µM
CCCCOc1ccc2c(c1)nc1cc[nH]c(=O)n12 [Compound 6a, 7-butoxybenzo[4,5]imidazo[1,2-c]pyrimidin-1(2H)-one] | > 100 µM | > 100 µM | > 100 µM | > 100 µM | > 100 µM | > 100 µM |  |  |  |  |  | 
CCCCCCOc1ccc2c(c1)nc1cc[nH]c(=O)n12 [Compound 6b, 7-(hexyloxy)benzo[4,5]imidazo[1,2-c]pyrimidin-1(2H)-one] | > 100 µM | > 100 µM | > 100 µM | > 100 µM | > 100 µM | > 100 µM |  |  |  |  |  | 
CCCCCCCCOc1ccc2c(c1)nc1cc[nH]c(=O)n12 [Compound 6c, 7-(octyloxy)benzo[4,5]imidazo[1,2-c]pyrimidin-1(2H)-one] | > 100 µM | > 100 µM | > 100 µM | > 100 µM | > 100 µM | > 100 µM |  |  |  |  |  | 
CCCCCCCCCCOc1ccc2c(c1)nc1cc[nH]c(=O)n12 [Compound 6d, 7-(decyloxy)benzo[4,5]imidazo[1,2-c]pyrimidin-1(2H)-one] | > 100 µM | > 100 µM | > 100 µM | > 100 µM | > 100 µM | > 100 µM |  |  |  |  |  | 
CCCCCCCCCCCCOc1ccc2c(c1)nc1cc[nH]c(=O)n12 [Compound 6e, 7-(dodecyloxy)benzo[4,5]imidazo[1,2-c]pyrimidin-1(2H)-one] | > 100 µM | > 100 µM | > 100 µM | > 100 µM | > 100 µM | > 100 µM |  |  |  |  |  | 
